Measurements as given in patent publication US10308645B2, “Piperidine oxadiazole and thiadiazole orexin receptor antagonists” (MERCK SHARP & DOHME CORP., priority 2014, dated 2019).

How the values were obtained:
human orexin-2 receptor = human orexin-2 receptor (Homo sapiens (Human), UniProt O43614); assay: FLIPR Ca2+ Flux Assay, hOX2R; type: cell-based; details: CHO cells expressing the receptor; agonist Ala-6,12 human orexin-A
Experimental: The utility of the compounds in accordance with the present invention as orexin receptor OX1R and/or OX2R antagonists may be readily determined without undue experimentation by methodology well known in the art, including the “FLIPR Ca^2+ Flux Assay” (Okumura et al., Biochem. Biophys. Res. Comm. 280:976-981, 2001). In a typical experiment the OX1 and OX2 receptor antagonistic activity of the compounds of the present invention was determined in accordance with the following experimental method. For intracellular calcium measurements, Chinese hamster ovary (CHO) cells expressing the rat orexin-1 receptor or the human orexin-2 receptor, are grown in Iscove's modified DMEM containing 2 mM L-glutamine, […], 1% hypoxanthine-thymidine supplement, 100 U/ml penicillin, 100 μg/ml streptomycin and 10% heat-inactivated fetal calf serum (FCS). The cells are seeded at 20,000 cells/well into Becton-Dickinson black 384-well clear bottom sterile plates coated with poly-D-lysine. All reagents were from GIBCO-Invitrogen Corp. The seeded plates are incubated overnight at 37° C. and 5% CO2. Ala-6,12 human orexin-A as the agonist is prepared as a 1 mM stock solution in 1% bovine serum albumin (BSA) and diluted in assay buffer (HBSS containing 20 mM HEPES, 0.1% BSA and 2.5 mM probenecid, pH7.4) for use in the assay at a final concentration of 70 pM. Test compounds are prepared as 10 mM stock solution in DMSO, then diluted in 384-well plates, first in DMSO, then assay buffer. On the day of the assay, cells are washed 3 times with 100 μl assay buffer and then incubated for 60 min (37° C., 5% CO2) in 60 μl assay buffer containing 1 μM Fluo-4AM ester, 0.02% pluronic acid, and 1% BSA. The dye loading solution is then aspirated and cells are washed 3 times with 100 μl assay buffer. 30 μl of that same buffer is left in each well. Within the Fluorescent Imaging Plate Reader (FLIPR, Molecular Devices), test compounds are added to the plate in a volume of 25 μl, incubated for 5 min and finally 25 μl of agonist is added. Fluorescence is measured for each well at 1 second intervals for 5 minutes and the height of each fluorescence peak is compared to the height of the fluorescence peak induced by […] Ala-6,12 orexin-A with buffer in place of antagonist. For each antagonist, IC50 value (the concentration of compound needed to inhibit 50% of the agonist response) is determined. Alternatively, compound potency can be assessed by a radioligand binding assay (described in Bergman et. al. Bioorg. Med. Chem. Lett. 2008, 18, 1425-1430) in which the inhibition constant (Ki) is determined in membranes prepared from CHO cells expressing either the OX1 or OX2 receptor. The intrinsic orexin receptor antagonist activity of a compound which may be used in the present invention may be determined by these assays.

[1] = molecular target: hOX1R (orexin-1 receptor) (Homo sapiens, UniProt O43613); assay: FLIPR Ca2+ Flux Assay, hOX1R; type: cell-based; details: CHO cells expressing the receptor; agonist Ala-6,12 human orexin-A

Sequence of human orexin-2 receptor (O43614 whole entry): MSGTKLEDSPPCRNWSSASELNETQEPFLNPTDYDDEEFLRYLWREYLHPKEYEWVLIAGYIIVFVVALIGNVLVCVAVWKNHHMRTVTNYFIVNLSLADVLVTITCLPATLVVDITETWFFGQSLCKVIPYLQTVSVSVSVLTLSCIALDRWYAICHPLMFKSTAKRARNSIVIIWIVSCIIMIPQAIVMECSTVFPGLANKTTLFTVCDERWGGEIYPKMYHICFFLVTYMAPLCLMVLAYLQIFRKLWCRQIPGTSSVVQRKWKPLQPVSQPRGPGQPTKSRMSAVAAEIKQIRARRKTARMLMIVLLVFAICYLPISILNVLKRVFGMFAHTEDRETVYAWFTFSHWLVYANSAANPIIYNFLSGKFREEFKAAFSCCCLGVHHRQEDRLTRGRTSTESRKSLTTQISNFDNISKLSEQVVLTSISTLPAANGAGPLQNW

Structure (SMILES) | IC50 (human orexin-2 receptor) [nM] | IC50 [1] [nM]
C[C@@H]1CC[C@@H](c2noc(C3CC3)n2)CN1C(=O)c1ccccc1-n1nccn1 [Example 1, (2R,5R)-5-(5-Cyclopropyl-1,2,4-oxadiazol-3-yl)-2-methyl-1-{[2-(2H-1,2,3-triazol-2-yl)phenyl]carbonyl}piperidine] | 329 | > 10000
C[C@@H]1CC[C@@H](c2noc(C(C)(C)C)n2)CN1C(=O)c1ccccc1-n1nccn1 [Example 2, (2R,5R)-5-(5-tert-butyl-1,2,4-oxadiazol-3-yl)-2-methyl-1-{[2-(2H-1,2,3-triazol-2-yl)phenyl]carbonyl}piperidine] | 29 | 516
CCc1nc([C@@H]2CC[C@@H](C)N(C(=O)c3ccccc3-n3nccn3)C2)no1 [Example 3, (2R,5R)-5-(5-ethyl-1,2,4-oxadiazol-3-yl)-2-methyl-1-{[2-(2H-1,2,3-triazol-2-yl)phenyl]carbonyl}piperidine] | 315 | > 10000
CC(C)c1nc([C@@H]2CC[C@@H](C)N(C(=O)c3ccccc3-n3nccn3)C2)no1 [Example 4, (2R,5R)-2-methyl-5-[5-(1-methylethyl)-1,2,4-oxadiazol-3-yl]-1-{[2-(2H-1,2,3-triazol-2-yl)phenyl]carbonyl}piperidine] | 28 | 699
C[C@@H]1CC[C@@H](c2noc(C(C)(C)O)n2)CN1C(=O)c1ccccc1-n1nccn1 [Example 5, 2-{3-[(3R,6R)-6-Methyl-1-{[2-(2H-1,2,3-triazol-2-yl)phenyl]carbonyl}piperidin-3-yl]-1,2,4-oxadiazol-5-yl}propan-2-ol] | 19 | 3180
C[C@@H]1CC[C@@H](c2noc([C@](C)(O)C(F)(F)F)n2)CN1C(=O)c1ccccc1-n1nccn1 [Example 6, (2S)-1,1,1-trifluoro-2-{3-[(3R,6R)-6-methyl-1-{[2-(2H-1,2,3-triazol-2-yl)phenyl]carbonyl}piperidin-3-yl]-1,2,4-oxadiazol-5-yl}propan-2-ol] | 18 | 288
C[C@@H]1CC[C@@H](c2noc([C@H](O)C(F)(F)F)n2)CN1C(=O)c1ccccc1-n1nccn1 [Example 7, (1S)-2,2,2-trifluoro-1-{3-[(3R,6R)-6-methyl-1-{[2-(2H-1,2,3-triazol-2-yl)phenyl]carbonyl}piperidin-3-yl]-1,2,4-oxadiazol-5-yl}ethanol] | 22 | 456
COC(C)(C)c1nc([C@@H]2CC[C@@H](C)N(C(=O)c3ccccc3-n3nccn3)C2)no1 [Example 8, (2R,5R)-5-[5-(1-Methoxy-1-methylethyl)-1,2,4-oxadiazol-3-yl]-2-methyl-1-{[2-(2H-1,2,3-triazol-2-yl)phenyl]carbonyl}piperidine] | 98 | 3700
C[C@@H]1CC[C@@H](c2noc([C@@H](O)C(F)(F)F)n2)CN1C(=O)c1ccccc1-n1nccn1 [Example 9, (1R)-2,2,2-Trifluoro-1-{3-[(3R,6R)-6-methyl-1-{[2-(2H-1,2,3-triazol-2-yl)phenyl]carbonyl}piperidin-3-yl]-1,2,4-oxadiazol-5-yl}ethanol] | 77 | 1010
C[C@@H]1CC[C@@H](c2noc([C@@](C)(O)C(F)(F)F)n2)CN1C(=O)c1ccccc1-n1nccn1 [Example 10, (2R)-1,1,1-Trifluoro-2-{3-[(3R,6R)-6-methyl-1-{[2-(2H-1,2,3-triazol-2-yl)phenyl]carbonyl}piperidin-3-yl]-1,2,4-oxadiazol-5-yl}propan-2-ol] | 97 | 2240
C[C@@H]1CC[C@@H](c2noc(C(C)(C)O)n2)CN1C(=O)c1ccccc1C1(C#N)CC1 [Example 11, 1-[2-({(2R,5R)-5-[5-(1-hydroxy-1-methylethyl)-1,2,4-oxadiazol-3-yl]-2-methylpiperidin-1-yl}carbonyl)phenyl]cyclopropanecarbonitrile] | 22 | 2290
C[C@@H]1CC[C@@H](c2noc(C(C)(C)O)n2)CN1C(=O)c1ccccc1-n1ncnn1 [Example 12, 2-{3-[(3R,6R)-6-methyl-1-{[2-(2H-tetrazol-2-yl)phenyl]carbonyl}piperidin-3-yl]-1,2,4-oxadiazol-5-yl}propan-2-ol] | 184 | > 10000
C[C@@H]1CC[C@@H](c2noc(C(C)(C)O)n2)CN1C(=O)c1ccsc1-n1nccn1 [Example 13, 2-{3-[(3R,6R)-6-methyl-1-{[2-(2H-1,2,3-triazol-2-yl)thiophen-3-yl]carbonyl}piperidin-3-yl]-1,2,4-oxadiazol-5-yl}propan-2-ol] | 39 | > 10000
C[C@@H]1CC[C@@H](c2noc(C(C)(C)O)n2)CN1C(=O)c1cscc1-n1nccn1 [Example 14, 2-{3-[(3R,6R)-6-methyl-1-{[4-(2H-1,2,3-triazol-2-yl)thiophen-3-yl]carbonyl}piperidin-3-yl]-1,2,4-oxadiazol-5-yl}propan-2-ol] | 48 | > 10000
C[C@@H]1CC[C@@H](c2noc(C(C)(C)O)n2)CN1C(=O)c1ccccc1OC(F)(F)F [Example 15, 2-{3-[(3R,6R)-6-methyl-1-{[2-(trifluoromethoxy)phenyl]carbonyl}piperidin-3-yl]-1,2,4-oxadiazol-5-yl}propan-2-ol] | 86 | > 10000
C[C@@H]1CC[C@@H](c2noc(C(C)(C)O)n2)CN1C(=O)c1cccnc1OCC(F)(F)F [Example 16, 2-{3-[(3R,6R)-6-methyl-1-{[2-(2,2,2-trifluoroethoxy)pyridin-3-yl]carbonyl}piperidin-3-yl]-1,2,4-oxadiazol-5-yl}propan-2-ol] | 87 | > 10000
CC(C)Oc1ncccc1C(=O)N1C[C@H](c2noc(C(C)(C)O)n2)CC[C@H]1C [Example 17, 2-{3-[(3R,6R)-6-methyl-1-{[2-(1-methylethoxy)pyridin-3-yl]carbonyl}piperidin-3-yl]-1,2,4-oxadiazol-5-yl}propan-2-ol] | 219 | > 10000
C[C@@H]1CC[C@@H](c2noc(C(C)(C)O)n2)CN1C(=O)c1ccccc1OC(F)F [Example 18, 2-{3-[(3R,6R)-1-{[2-(difluoromethoxy)phenyl]carbonyl}-6-methylpiperidin-3-yl]-1,2,4-oxadiazol-5-yl}propan-2-ol] | 140 | > 10000
CCOc1ccccc1C(=O)N1C[C@H](c2noc(C(C)(C)O)n2)CC[C@H]1C [Example 19, 2-(3-{(3R,6R)-1-[(2-ethoxyphenyl)carbonyl]-6-methylpiperidin-3-yl}-1,2,4-oxadiazol-5-yl)propan-2-ol] | 124 | > 10000
COC(=O)c1ccccc1C(=O)N1C[C@H](c2noc(C(C)(C)O)n2)CC[C@H]1C [Example 20, methyl 2-({(2R,5R)-5-[5-(1-hydroxy-1-methylethyl)-1,2,4-oxadiazol-3-yl]-2-methylpiperidin-1-yl}carbonyl)benzoate] | 97 | > 10000
C[C@@H]1CC[C@@H](c2nsc(C(C)(C)O)n2)CN1C(=O)c1cccnc1OCC(F)(F)F [Example 38, 2-{3-[(3R,6R)-6-methyl-1-{[2-(2,2,2-trifluoroethoxy)pyridin-3-yl]carbonyl}piperidin-3-yl]-1,2,4-thiadiazol-5-yl}propan-2-ol] | 124 | –
